Data on 2 compounds can be found in PMC10313001, “Carboxylic acids that drive mosquito attraction to humans activate ionotropic receptors” (PLOS Neglected Tropical Diseases, 2023).

One experiment deals with T1, AaegIR75k3 (Aedes aegypti, UniProt A0A6I8U3Y9).
T1 construct: gene 5563739; with AaegIR8a
T1 sequence (A0A6I8U3Y9 20-624): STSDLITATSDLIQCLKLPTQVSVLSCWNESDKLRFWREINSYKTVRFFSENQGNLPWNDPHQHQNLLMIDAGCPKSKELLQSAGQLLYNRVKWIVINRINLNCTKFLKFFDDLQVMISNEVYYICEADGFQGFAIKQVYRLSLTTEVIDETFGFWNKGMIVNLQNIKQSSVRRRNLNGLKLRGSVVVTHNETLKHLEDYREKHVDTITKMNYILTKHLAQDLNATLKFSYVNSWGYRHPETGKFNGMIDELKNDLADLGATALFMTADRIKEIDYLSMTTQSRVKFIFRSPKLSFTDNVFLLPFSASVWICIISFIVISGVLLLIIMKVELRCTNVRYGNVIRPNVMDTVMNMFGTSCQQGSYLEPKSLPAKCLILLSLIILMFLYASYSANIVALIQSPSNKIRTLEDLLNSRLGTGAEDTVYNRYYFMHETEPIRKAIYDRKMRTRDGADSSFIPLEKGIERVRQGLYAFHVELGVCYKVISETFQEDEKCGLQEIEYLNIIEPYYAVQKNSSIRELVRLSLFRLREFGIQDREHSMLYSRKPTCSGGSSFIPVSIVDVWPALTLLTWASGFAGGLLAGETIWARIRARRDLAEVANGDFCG
T1 sequence (A0A1S4F362 23-913 partner): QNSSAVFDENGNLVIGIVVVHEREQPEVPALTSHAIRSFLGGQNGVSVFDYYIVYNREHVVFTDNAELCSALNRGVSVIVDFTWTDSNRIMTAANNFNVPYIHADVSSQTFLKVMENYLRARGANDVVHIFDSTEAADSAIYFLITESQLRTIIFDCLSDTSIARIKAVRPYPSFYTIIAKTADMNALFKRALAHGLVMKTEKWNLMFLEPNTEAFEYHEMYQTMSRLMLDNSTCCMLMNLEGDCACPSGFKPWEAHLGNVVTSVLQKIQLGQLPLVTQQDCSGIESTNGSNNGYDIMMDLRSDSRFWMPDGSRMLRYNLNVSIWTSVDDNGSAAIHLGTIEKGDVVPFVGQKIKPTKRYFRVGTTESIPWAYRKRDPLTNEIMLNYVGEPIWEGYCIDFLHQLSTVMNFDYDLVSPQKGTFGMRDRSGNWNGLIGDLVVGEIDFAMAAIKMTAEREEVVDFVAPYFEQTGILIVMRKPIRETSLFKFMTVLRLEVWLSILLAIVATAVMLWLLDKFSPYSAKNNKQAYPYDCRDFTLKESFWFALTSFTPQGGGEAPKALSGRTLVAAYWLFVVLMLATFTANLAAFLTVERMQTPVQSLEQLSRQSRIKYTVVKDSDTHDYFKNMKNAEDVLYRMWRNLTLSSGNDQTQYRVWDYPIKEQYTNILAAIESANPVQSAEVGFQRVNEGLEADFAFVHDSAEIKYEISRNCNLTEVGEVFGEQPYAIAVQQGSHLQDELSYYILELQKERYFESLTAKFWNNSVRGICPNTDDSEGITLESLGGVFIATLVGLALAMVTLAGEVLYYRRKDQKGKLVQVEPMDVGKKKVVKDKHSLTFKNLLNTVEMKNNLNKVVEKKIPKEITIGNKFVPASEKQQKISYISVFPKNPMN
The experiment is described as follows: two-electrode voltage clamp, Xenopus oocytes expressing AaegIR75k3/AaegIR8a. It counts as cell-based. (In general: In two-electrode clamp one electrode senses voltage and the other passes current.)

Experiment [1] concerns the target T2, AaegIR75k1 (Aedes aegypti, UniProt A0A6I8TFY9).
T2 construct: gene 5563741; with AaegIR8a
T2 sequence (A0A6I8TFY9 20-624): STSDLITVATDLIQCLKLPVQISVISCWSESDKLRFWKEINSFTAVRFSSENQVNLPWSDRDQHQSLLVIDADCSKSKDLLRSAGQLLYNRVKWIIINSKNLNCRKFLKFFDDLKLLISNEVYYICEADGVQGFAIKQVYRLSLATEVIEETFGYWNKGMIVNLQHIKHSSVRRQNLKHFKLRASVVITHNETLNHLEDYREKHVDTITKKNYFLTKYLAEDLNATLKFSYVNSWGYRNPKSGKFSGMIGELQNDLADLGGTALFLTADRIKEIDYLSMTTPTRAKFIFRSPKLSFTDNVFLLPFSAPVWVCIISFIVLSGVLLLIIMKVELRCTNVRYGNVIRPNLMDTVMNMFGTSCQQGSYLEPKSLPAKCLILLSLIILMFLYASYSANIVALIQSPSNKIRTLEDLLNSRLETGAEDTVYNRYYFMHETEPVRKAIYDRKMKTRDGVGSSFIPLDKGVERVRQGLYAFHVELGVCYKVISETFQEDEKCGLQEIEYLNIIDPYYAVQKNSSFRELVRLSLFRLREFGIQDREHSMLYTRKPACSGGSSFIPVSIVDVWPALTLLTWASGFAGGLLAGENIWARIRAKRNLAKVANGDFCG
T2 sequence (A0A1S4F362 23-913 partner): T1 sequence (A0A1S4F362 23-913 partner)
The experiment is described as follows: two-electrode voltage clamp, Xenopus oocytes expressing AaegIR75k1/AaegIR8a. It counts as cell-based.

The next experiment relates to T3, AalbIR75e.
T3 construct: gene Ir75e; with AalbIR8a
The experiment is described as follows: two-electrode voltage clamp, Xenopus oocytes expressing AalbIR75e/AalbIR8a. It counts as cell-based, Aedes albopictus.

Experiment [2] concerns the target T2, AaegIR75k1. The experiment is described as follows: two-electrode voltage clamp, Xenopus oocytes, single concentration […]; response about one quarter of nonanoic acid. Format: cell-based.

In the case of `CCCCCCCCC(=O)O` [nonanoic acid], the concentration for a half-maximal effect (EC50) at AaegIR75k3 was determined as 18.1 µM; on AaegIR75k1 [1] it was 9.94 µM; with AalbIR75e, 8.64 µM.

In turn, `CCCCCCCC(=O)O` [octanoic acid] came in with an EC50 on AaegIR75k3 of 25.2 µM. For the same compound, the “two-electrode voltage clamp, Xenopus oocytes, single concentration 10^-4 M; resp” value on AaegIR75k1 [2] is reported as “also maximally activated by nonanoic acid, with responses four-fold greater than for octanoic acid”.

What is called EC50 is the concentration that produces a half-maximal response.
